From patent US20100099703A1, “PHENYLAMINO-SUBSTITUTED PIPERIDINE COMPOUNDS, THEIR PREPARATION AND USE AS MEDICAMENTS” (priority 2006, published 2010)

Molecular target: T1, rat Y5 receptor (Rattus norvegicus, UniProt Q63634)
T1 construct: expressed in transfected cells; host or cells: C6 cells (membrane preparation)
T1 sequence (Q63634 1-445): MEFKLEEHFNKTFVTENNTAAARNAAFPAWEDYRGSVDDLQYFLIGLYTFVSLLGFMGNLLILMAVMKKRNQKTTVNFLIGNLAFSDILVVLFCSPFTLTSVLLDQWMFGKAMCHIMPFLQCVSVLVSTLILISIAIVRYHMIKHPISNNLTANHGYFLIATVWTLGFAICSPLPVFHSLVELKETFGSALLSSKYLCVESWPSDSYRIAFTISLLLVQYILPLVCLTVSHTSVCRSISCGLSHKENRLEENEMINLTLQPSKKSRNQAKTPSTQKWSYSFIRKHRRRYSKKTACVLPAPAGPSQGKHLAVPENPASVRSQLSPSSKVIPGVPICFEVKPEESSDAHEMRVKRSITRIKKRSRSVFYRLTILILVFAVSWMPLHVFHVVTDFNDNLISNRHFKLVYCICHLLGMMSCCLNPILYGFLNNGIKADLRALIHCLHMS
Test: Neuropeptide Y5 receptor binding ([125I]-PYY displacement, membranes of transfected C6 cells)
Details: radioligand [125I]-PYY 100 pM, C6 cells transfected with rat Y5 receptor; for inhibition at 1 µM: compound at 10^−6 M
Procedure: Neuropeptide Y5 Receptor Binding Studies:
The methods used for membrane preparation and binding are similar to those described by Y. Hu, B. T. Bloomquist et al. in Y. Hu, B. T. Bloomquist et al., The Journal of Biological Chemistry, 1996, 271, 26315-26319 with modifications. Said literature description is herewith incorporated by reference and forms part of the disclosure. Cells C6 were transfected with the rat Y5 receptor. The cells were grown under standard culture conditions in 150 cm^2 dishes and they were harvested using a rubber scraper and 10 ml PBS. The cells from five dishes were collected and centrifuged 2.500 g for 5 min (4° C.). The pellet was washed by resuspending in 3 ml buffer (Tris-HCl 10 mM, pH 7.4), homogenized using a Potter S homogenizer, 10 strokes at 600 rpm and centrifuged 48.000 g for 20 min (4° C.). The pellet was resuspended in 8 ml membrane buffer (Tris-HCl 25 mM, NaCl 120 mM, KCl 5 mM, KH2PO4 1.2 mM, CaCl2 2.5 mM, MgSO4 1.2 mM, BSA 0.15 mg/ml, Bacitracine 0.5 mg/ml, pH 7.4) and rehomogenized using the Potter S, 10 strokes at 600 rpm. The protein concentration in the incubation was 40 μg/ml. The radioligand was [^125I]-PYY (100 pM) in a total incubation volume of 200 μl. Following incubation at 25° C. for 2 h, the reaction was stopped by addition of 5 ml ice-cold buffer (Tris-HCl 25 mM, NaCl 120 mM, KCl 5 mM, KH2PO4 1.2 mM, CaCl2 2.5 mM, MgSO4 1.2 mM, pH 7.4) and rapid filtration in a Harvester Brandell Cell using filters (Schleicher & Schuell GF 3362) pretreated for two hours with 0.5% polyethyleneimine. Filters were washed one time with 5 ml ice-cold buffer. The filters were placed into plastic scintilation vials and 5 ml scintilation cocktail Ecoscint H were added. The quantity of radioactivity present was determined in a Wallac Winspectral 1414 counter. Non specific binding was determined in the presence of 1 μM de pNPY. All binding assays were done in triplicate.

SMILES | inhibition at 1 µM [%] | IC50 [nM]
CCn1c2ccccc2c2cc(NC(=O)CN3CCC(Nc4cccc(O)c4)CC3)ccc21 [Example 10, N-(9-Ethyl-9H-carbazol-3-yl)-2-[4-(3-hydroxy-phenylamino)-piperidin-1-yl]-acetamide] | 105 | 34.6
O=C(CN1CCC(Nc2ccccc2O)CC1)Nc1ccc2c(c1)-c1ccccc1C2=O [Example 6, 2-[4-(2-Hydroxy-phenylamino)-piperidin-1-yl]-N-(9-oxo-9H-fluoren-3-yl)-acetamide] | 95 | 57.5
CCn1c2ccccc2c2cc(NC(=O)CN3CCC(Nc4ccc(O)cc4)CC3)ccc21 [Example 15, N-(9-Ethyl-9H-carbazol-3-yl)-2-[4-(4-hydroxy-phenylamino)-piperidin-1-yl]-acetamide] | 74.6 | –
CCn1c2ccccc2c2cc(NC(=O)CN3CCC(Nc4ccccc4OC)CC3)ccc21 [Example 17, N-(9-Ethyl-9H-carbazol-3-yl)-2-[4-(2-methoxy-phenylamino)-piperidin-1-yl]-acetamide] | 101 | 46.9
O=C(CN1CCC(Nc2ccccc2O)CC1)Nc1ccc(C2CCCCC2)cc1 [Example 4, N-(4-Cyclohexyl-phenyl)-2-[4-(2-hydroxy-phenylamino)-piperidin-1-yl]-acetamide] | 35.3 | –
O=C(CN1CCC(Nc2ccccc2O)CC1)Nc1ccc2c(c1)CCCC2=O [Example 9, 2-[4-(2-Hydroxy-phenylamino)-piperidin-1-yl]-N-(5-oxo-5,6,7,8-tetrahydro-naphthalen-2-yl)-acetamide] | 44.7 | –
CCn1c2ccccc2c2cc(NC(=O)CN3CCC(Nc4ccccc4O)CC3)ccc21 [Example 3, N-(9-Ethyl-9H-carbazol-3-yl)-2-[4-(2-hydroxy-phenylamino)-piperidin-1-yl]-acetamide] | 97.8 | 66.1
CC(=O)c1ccc(NC(=O)CN2CCC(Nc3ccccc3O)CC2)cc1 [Example 7, N-(4-Acetyl-phenyl)-2-[4-(2-hydroxy-phenylamino)-piperidin-1-yl]-acetamide] | 14 | –
O=C(CN1CCC(Nc2ccccc2O)CC1)Nc1cnc2ccccc2c1 [Example 1, 2-[4-(2-Hydroxy-phenylamino)-piperidin-1-yl]-N-quinolin-3-yl-acetamide] | 5.6 | –
O=C(CN1CCC(Nc2cccc(O)c2)CC1)Nc1ccc2ncccc2c1 [Example 13, 2-[4-(3-Hydroxy-phenylamino)-piperidin-1-yl]-N-quinolin-6-yl-acetamide] | 27.8 | –
O=C(CN1CCC(Nc2ccc(O)cc2)CC1)Nc1ccc2c(c1)-c1ccccc1C2=O [Example 16, 2-[4-(4-Hydroxy-phenylamino)-piperidin-1-yl]-N-(9-oxo-9H-fluoren-3-yl)-acetamide] | 101 | –
COc1ccccc1NC1CCN(CC(=O)Nc2ccc3c(c2)-c2ccccc2C3=O)CC1 [Example 18, 2-[4-(2-Methoxy-phenylamino)-piperidin-1-yl]-N-(9-oxo-9H-fluoren-3-yl)-acetamide] | 96.1 | –
CCN(CCO)c1ccc(NC(=O)CN2CCC(Nc3cccc(O)c3)CC2)cc1 [Example 12, N-{4-[Ethyl-(2-hydroxy-ethyl)-amino]-phenyl}-2-[4-(3-hydroxy-phenylamino)-piperidin-1-yl]-acetamide] | 51.2 | –
O=C(CN1CCC(Nc2cccc(O)c2)CC1)Nc1ccc2c(c1)-c1ccccc1C2=O [Example 11, 2-[4-(3-Hydroxy-phenylamino)-piperidin-1-yl]-N-(9-oxo-9H-fluoren-3-yl)-acetamide] | 76.9 | 35.6
O=C(CN1CCC(Nc2ccccc2O)CC1)Nc1ccc(C(=O)c2ccccc2)cc1 [Example 2, N-(4-Benzoyl-phenyl)-2-[4-(2-hydroxy-phenylamino)-piperidin-1-yl]-acetamide] | 62.5 | –
O=C(CN1CCC(Nc2ccccc2O)CC1)Nc1ccc2ncccc2c1 [Example 5, 2-[4-(2-Hydroxy-phenylamino)-piperidin-1-yl]-N-quinolin-6-yl-acetamide] | 22.7 | –

Continued, values first:

inhibition at 1 µM [%] | IC50 [nM] | SMILES
97.3 | – | COc1ccc(NC2CCN(CC(=O)Nc3ccc4c(c3)-c3ccccc3C4=O)CC2)cc1 [Example 28, 2-[4-(4-Methoxy-phenylamino)-piperidin-1-yl]-N-(9-oxo-9H-fluoren-3-yl)-acetamide]
67.1 | – | O=C(CN1CCC(Nc2ccccc2)CC1)Nc1ccc2c(c1)CCCC2=O [Example 35, N-(5-Oxo-5,6,7,8-tetrahydro-naphthalen-2-yl)-2-(4-phenylamino-piperidin-1-yl)-acetamide]
91.1 | – | CCn1c2ccccc2c2cc(NC(=O)CN3CCC(Nc4ccc(OC)cc4)CC3)ccc21 [Example 27, N-(9-Ethyl-9H-carbazol-3-yl)-2-[4-(4-methoxy-phenylamino)-piperidin-1-yl]-acetamide]
37 | – | COc1cccc(NC2CCN(CC(=O)Nc3ccc(C(=O)c4ccccc4)cc3)CC2)c1 [Example 26, N-(4-Benzoyl-phenyl)-2-[4-(3-methoxy-phenylamino)-piperidin-1-yl]-acetamide]
72.6 | – | CCN(CCO)c1ccc(NC(=O)CN2CCC(Nc3ccccc3)CC2)cc1 [Example 34, N-{4-[Ethyl-(2-hydroxy-ethyl)-amino]-phenyl}-2-(4-phenylamino-piperidin-1-yl)-acetamide]
108 | 102 | O=C(CN1CCC(Nc2ccccc2)CC1)Nc1ccc2c(c1)-c1ccccc1C2=O [Example 33, N-(9-Oxo-9H-fluoren-3-yl)-2-(4-phenylamino-piperidin-1-yl)-acetamide]
19.6 | – | COc1ccccc1NC1CCN(CC(=O)Nc2cnc3ccccc3c2)CC1 [Example 21, 2-[4-(2-Methoxy-phenylamino)-piperidin-1-yl]-N-quinolin-3-yl-acetamide]
55.7 | – | COc1ccccc1NC1CCN(CC(=O)Nc2ccc(C(=O)c3ccccc3)cc2)CC1 [Example 22, N-(4-Benzoyl-phenyl)-2-[4-(2-methoxy-phenylamino)-piperidin-1-yl]-acetamide]
69 | – | CCN(CCO)c1ccc(NC(=O)CN2CCC(Nc3ccc(OC)cc3)CC2)cc1 [Example 29, N-{4-[Ethyl-(2-hydroxy-ethyl)-amino]-phenyl}-2-[4-(4-methoxy-phenylamino)-piperidin-1-yl]-acetamide]
45.1 | – | O=C(CN1CCC(N(CC(=O)Nc2ccc3c(c2)-c2ccccc2C3=O)c2ccc(O)cc2)CC1)Nc1ccc2c(c1)-c1ccccc1C2=O [Example 38, 2-(4-{(4-Hydroxy-phenyl)-[(9-oxo-9H-fluoren-3-ylcarbamoyl)-methyl]-amino}-piperidin-1-yl)-N-(9-oxo-9H-fluoren-3-yl)-acetamide]
80.7 | 23.7 | CCn1c2ccccc2c2cc(NC(=O)CN3CCC(Nc4ccccc4)CC3)ccc21 [Example 32, N-(9-Ethyl-9H-carbazol-3-yl)-2-(4-phenylamino-piperidin-1-yl)-acetamide]
97.5 | – | COc1cccc(NC2CCN(CC(=O)Nc3ccc4c(c3)-c3ccccc3C4=O)CC2)c1 [Example 24, 2-[4-(3-Methoxy-phenylamino)-piperidin-1-yl]-N-(9-oxo-9H-fluoren-3-yl)-acetamide]
96.9 | – | CCn1c2ccccc2c2cc(NC(=O)CN3CCC(Nc4cccc(OC)c4)CC3)ccc21 [Example 23, N-(9-Ethyl-9H-carbazol-3-yl)-2-[4-(3-methoxy-phenylamino)-piperidin-1-yl]-acetamide]
51.6 | – | CCN(CCO)c1ccc(NC(=O)CN2CCC(Nc3cccc(OC)c3)CC2)cc1 [Example 25, N-{4-[Ethyl-(2-hydroxy-ethyl)-amino]-phenyl}-2-[4-(3-methoxy-phenylamino)-piperidin-1-yl]-acetamide]
